Literature values in patent US11278572B2, “Reducing CXCR4 expression and/or function to enhance engraftment of hematopoietic stem cells” (THE UNITED STATES OF AMERICA, as represented by the …, priority 2014, dated 2022).

Columns and labels:
CXCR4 = settings: WHIM patients, small studies
HPV = settings: WHIM patients

Row | Structure (SMILES) | effect on panleukopenia and WHIM syndrome (CXCR4) | effect on cutaneous and anogenital HPV disease (HPV)
1 | c1cc(CN2CCCNCCNCCCNCC2)ccc1CN1CCCNCCNCCCNCC1 [Plerixafor, plerixafor] | successful at reversing the panleukopenia and treating WHIM syndrome | –
2 | CC(C)Cn1cnc2c(N)nc3ccccc3c21 [imiquimod] | – | ineffective
